# Test results as given in US20170202973A1 (GENENTECH, INC., priority 2009, published 2017).
# Where two headings read alike, the source gives them in different places.
# Assays:
# [1] = cited from earlier work
# [2] = test system: HER2-positive metastatic breast cancer; conditions: for Patients Censored, % / Patients Censored, number / Patients Progressed, % / Patients Progressed, number: PFS analysis; for CR / Clinical Benefit Rate / Missing tumor response / Objective Response Rate, % / PD / PR / UE: N = 110, updated analysis
# Description: The analysis of objective response rate was conducted with patient data collected through approximately 26 weeks after the last patient is enrolled in the study. This study enrolled patients with HER2-positive MBC. […] Patients will be required to have HER2-positive status, as evidenced by either 3+ HER2 protein overexpression determined by immunohistochemistry (IHC) or HER2 gene amplification determined by FISH.
# Efficacy Assessments: Tumor responses were categorized as complete response (CR), partial response (PR), stable disease (SD), or progressive disease (PD) according to the Response Evaluation Criteria for Solid Tumors (RECIST). Tumor assessments (CT and/or magnetic resonance imaging [MRI] scans) were performed approximately every 6 weeks irrespective of dose delays, interruptions, or reductions. Bone and brain scans (either CT or Mill) were performed at baseline and if clinically indicated during the study. Patient management decisions were made based on tumor assessments performed by investigators. The primary study endpoints related to response were determined by an independent radiologic review of patient scans, with assessments based on investigator reporting being secondary. If each non-target lesion cannot be assessed at a follow-up tumor assessment timepoint, patients may still be considered evaluable for timepoint response as long as all target lesions are measured. Patients with non-target lesions that were not assessed at a timepoint were assessed as having a partial response, stable disease, or progressive disease. All lesions, target and non-target, were assessed before a response was considered confirmed. To reduce the frequency of unevaluable non-target lesions, bone lesions visible on baseline CT scan as non-target lesion(s) for follow-up, were compared with bone lesions identified on the baseline bone scan where possible if lesions are not visible on both modalities or as easily and reproducibly assessed.
# Efficacy Assessments: An assessment of the objective response rate, the primary objective of this trial, was based on the RECIST and confirmed by independent review of baseline and follow-up assessments obtained every 6 weeks. All known sites of disease should be reassessed at each timepoint whenever possible. Because bone involvement is a common finding in patients with MBC, a bone scan at baseline may be conducted. In addition, patients with non-target lesions that were not assessed at a timepoint were assessed as having a partial response, stable disease, or progressive disease. All lesions, target and non-target (including bone lesions), were assessed before a complete response can be considered confirmed.
# Efficacy Outcome Measures: The primary efficacy outcome measure is objective response (defined as a complete or partial response determined on two consecutive occasions 4 weeks apart), as assessed through independent radiologic review using RECIST. The secondary efficacy outcome measures are as follows: Duration of objective response, as assessed through independent radiologic review using RECIST; PFS, as assessed through independent radiologic review using RECIST; CBR based on independent radiologic review using RECIST; Objective response based on investigator assessments using RECIST; Duration of objective response based on investigator assessments using RECIST; PFS based on investigator assessments using RECIST; and CBR based on investigator assessments using RECIST.
# The analysis of objective response rate was conducted with patient data collected through approximately 26 weeks after the last patient was enrolled in the study. In addition, the final analysis of safety and all secondary and exploratory endpoints will be updated with sufficient data when available (estimated to be approximately 10 months after the last patient is enrolled in the study). After the final analysis, the study was closed. […] This study enrolled patients with HER2-positive MBC.
# [3] = Investigator, N = 110, initial analysis
# [4] = Patients with HER2+ retrospectively confirmed, n = 76, INV, initial analysis
# [5] = Patients with HER2+ retrospectively confirmed, n = 76, IRF, initial analysis
# [6] = Patients with HER2+ retrospectively confirmed, n = 80, INV, updated analysis
# [7] = Patients with HER2+ retrospectively confirmed, n = 80, IRF, updated analysis
# [8] = Patients with HER2 normal, n = 15, INV, initial analysis
# [9] = Patients with HER2 normal, n = 15, IRF, initial analysis
# [10] = of 110 treated, 70 discontinued, data cutoff
compound,measurement,setting,value
COc1cc2cc(c1Cl)N(C)C(=O)C[C@H](OC(=O)[C@H](C)N(C)C(C)=O)[C@]1(C)O[C@H]1[C@H](C)[C@@H]1C[C@@](O)(NC(=O)O1)[C@H](OC)/C=C/C=C(\C)C2 [maytansine],dose-limiting toxicity (DLT),"[1]; approximately 800 patients, 2.0 mg/m^2 every 3 weeks, single dose or 3 consecutive days",gastrointestinal
same,activity in the clinic,[1]; at doses that could be safely delivered,modest
trastuzumab-MCC-DM1 [T-DM1],"Patients Censored, %","[2]; INV, all treated patients",45.5%
same,"Patients Censored, number","[2]; INV, all treated patients",50 patients
same,"Patients Progressed, %","[2]; INV, all treated patients",54.5%
same,"Patients Progressed, number","[2]; INV, all treated patients",60 patients
same,PFS (months) 25-75%,"[2]; INV, all treated patients",2.8-11.1 months
same,"Missing tumor response, %","[2]; IRF, N = 110, initial analysis",(0.9%)
same,"PD, %","[2]; IRF, N = 110, initial analysis",(18.2%)
same,"PR, %","[2]; IRF, N = 110, initial analysis",(32.7%)
same,"UE, %","[2]; IRF, N = 110, initial analysis",(1.8%)
same,CR,[2]; IRF,0%
same,Clinical Benefit Rate,[2]; IRF,48.2%
same,Missing tumor response,[2]; IRF,0.9%
same,"Objective Response Rate, %",[2]; IRF,34.5%
same,PD,[2]; IRF,18.2%
same,PR,[2]; IRF,34.5%
same,UE,[2]; IRF,1.8%
same,"Patients Censored, %","[2]; IRF, all treated patients",54.5%
same,"Patients Censored, number","[2]; IRF, all treated patients",60 patients
same,"Patients Progressed, %","[2]; IRF, all treated patients",45.5%
same,"Patients Progressed, number","[2]; IRF, all treated patients",50 patients
same,PFS (months) 25-75%,"[2]; IRF, all treated patients",2.6-9.7 months
same,PFS (months) median,"[2]; IRF, all treated patients, initial analysis",7.3 months
same,median PFS,"[2]; IRF, updated analysis, all treated patients, 95% CI (4.2-8.4)",6.9
same,"CR, %",[2]; [3],(1.8%)
same,"Missing tumor response, %",[2]; [3],(2.7%)
same,"PD, %",[2]; [3],(13.6%)
same,"PR, %",[2]; [3],(28.2%)
same,"UE, %",[2]; [3],(0.9%)
same,CR,[2]; Investigator,4.5%
same,Clinical Benefit Rate,[2]; Investigator,46.4%
same,Missing tumor response,[2]; Investigator,0.9%
same,"Objective Response Rate, %",[2]; Investigator,32.7%
same,PD,[2]; Investigator,14.5%
same,PR,[2]; Investigator,28.2%
same,UE,[2]; Investigator,0.9%
same,"Clinical benefit rate, %",[2]; [4],47.4%
same,"ORR, %",[2]; [4],36.8%
same,"Clinical benefit rate, %",[2]; [5],52.6%
same,"ORR, %",[2]; [5],39.5%
same,"Clinical benefit rate, %",[2]; [6],(53.8%)
same,"ORR, %",[2]; [6],(40.0%)
same,"Clinical benefit rate, %",[2]; [7],(55.0%)
same,"ORR, %",[2]; [7],(41.3%)
same,"Clinical benefit rate, %",[2]; [8],20.0%
same,"ORR, %",[2]; [8],13.3%
same,"Clinical benefit rate, %",[2]; [9],26.7%
same,"ORR, %",[2]; [9],20.0%
same,"patients that discontinued treatment with progressive disease, %",[2]; [10],52.7%
same,"patients that discontinued treatment with progressive disease, number",[2]; [10],58 patients
